In brackets after ≈: the same amount, converted by molar mass.
Experiments:
[1] = PAMPA BBB permeability assay
From the text: For the stationary phase, a Dr. Maisch ReproSil-Pur Basic-C18 100 Å column with 5 µm particle size and 250 × 4.60 mm (Dr. Maisch, Ammerbuch-Entringen, Germany) was used. […] The mobile phase was vacuum-filtered through a 0.45 µm nylon filter (Phenomenex, Torrance, CA, USA). […] The injection volume differed depending on the assay.
The sandwich consists of two 96-well microfilter plates. The PAMPA systems contain two chambers: the donor chamber at the bottom and the acceptor chamber at the top. […] The plates were combined and then incubated for 3 h for both models in a humidity-saturated atmosphere with the temperature set at 37 °C. To assess the apparent permeability coefficient factor (Papp), 5.0 mg of raw compounds were dissolved in 1.0 mL of DMSO. Then, we followed the manufacturer’s guidelines for further performance in the assay. […] In the case of the studied systems, the solutions were first prepared in the same manner as in the solubility study. […] Next, the obtained solution was diluted 1:1 with donor solution for the GIT and BBB assays and placed in the donor compartment. The results were expressed as a concentration in the acceptor solution.

in vitro = in vitro ADME
Protocol: (§1) The injection volume differed depending on the assay. […] The method’s duration was 10 min.
The sandwich consists of two 96-well microfilter plates.

physchem = format: physicochemical; conditions: for solubility thermodynamic at 3 h: pH 6.8, aqueous buffer, thermodynamic from solid
Protocol: as §1
(§2) Phosphate buffer at pH 6.8 was prepared according to the following description: in a 1000-mL volumetric flask, we placed 250 mL of 0.2 N potassium dihydrogen phosphate solution, then added 112 mL of 0.2 N sodium hydroxide solution, and filled the mixture up to 1000 mL with distilled water. High-quality pure water was prepared using a Direct-Q 3 UV purification system (Millipore, Molsheim, France, model Exil SA 67120).
An excess amount of raw compounds and systems was placed in a 10 mL glass tube; then, 2.0 mL of phosphate buffer (pH 6.8) was added and left at room temperature for 3 h.

[2] = Dissolution study (paddle apparatus); format: physicochemical; conditions: phosphate buffer pH 6.8, 37 °C, 50 rpm; raw compound value after one hour
Protocol: as §1, §2
The dissolution study was performed on the paddle apparatus. The amount of the compound and systems corresponding to 7.0 mg of each plant-origin active ingredient was added to the dissolution medium. The vessels were filled with 500 mL of phosphate buffer, pH 6.8; the temperature was maintained at 37 °C, and the paddles were set at a stirring speed of 50 rotations per minute. The 2.0 mL samples were withdrawn at predetermined time points with the replacement of equal volumes of temperature-equilibrated media.

Compound	Papp at 3 h ([1]; PAMPA, pH 7.4)	concentration of hesperetin in the acceptor part, PAMPA BBB ([1]; donor pH ≈ 7.4, 3 h, 37 °C)	concentration of hesperetin in the acceptor part, PAMPA GIT (in vitro; 3 h, pH 6.8)	Papp (in vitro; PAMPA, raw compound dissolved in DMSO, donor pH ≈ 6.8, 3 h, 37 °C, read-out: apparent permeability coefficient (Papp), PAMPA GIT)	Hesperetin Conc. (physchem; 3 h, pH 6.8)	solubility thermodynamic at 3 h (physchem)	hesperetin dissolved (% of the dose added to the dissolution medium) [2]	concentration of piperine in the acceptor part, PAMPA BBB ([1]; PAMPA, 3 h, pH 7.4)	concentration of piperine in the acceptor part, PAMPA GIT (in vitro; 3 h, pH 6.8)	Papp at 3 h (in vitro; PAMPA, pH 6.8)	Piperine Conc. (physchem; 3 h, pH 6.8)	piperine dissolved (% of the dose added to the dissolution medium) [2]
COc1ccc([C@@H]2CC(=O)c3c(O)cc(O)cc3O2)cc1O [Hesperetin, hesperetin]	7.05 ×10⁻⁶ cm/s	38.9 ± 16.6 ng/mL	25.8 ± 6.16 ng/mL	2.59 ×10⁻⁶ cm/s	0.005 ± 0.001 mg/mL	5 ± 1 µg/mL (≈ 16.5 µM)	23.75 ± 2.99%					
O=C(/C=C/C=C/c1ccc2c(c1)OCO2)N1CCCCC1 [Piperine, piperine]	40 ×10⁻⁶ cm/s					6 ± 1 µg/mL (≈ 21 µM)		1030 ± 104 ng/mL	2010 ± 100 ng/mL	37.3 ×10⁻⁶ cm/s	0.006 ± 0.001 mg/mL	27.79 ± 3.38%

Reference: publication PMC10002548, “Amorphous System of Hesperetin and Piperine—Improvement of Apparent Solubility, Permeability, and Biological Activities” (International Journal of Molecular Sciences, 2023)
